Among the test systems are P388/ADR leukemia; SN12K1 renal; P388 leukemia; ACHN renal; DU-145 prostate; BT-549 breast; HS 578T breast; LXFL 529 NSCLC; RXF-631 renal; SR leukemia; MDA-N.
Holding throughout (experiment): NCI tumour cell line growth inhibition, 48 h

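These data come from cells grown in 96-well plates and exposed to compound for 48 hours at five concentrations. TGI: total growth inhibition.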 Some results are limits rather than exact numbers.

`CCCN1C(=O)/C(=C(/O)C(=O)OCC)C(c2ccc(OC)c(OC)c2)C1=O` (centres undefined): the TGI in the assay with P388/ADR leukemia, with SN12K1 renal and with P388 leukemia was more than 100 µM throughout.
With `COc1cc(-c2coc3c(OC)c(OC4OC(COC5OC(C)C(O)C(O)C5O)C(O)C(O)C4O)c(OC)c(O)c3c2=O)cc(C)c1O` (centres undefined), the TGI in the assay with ACHN renal came out at 52.9 µM; with DU-145 prostate, 52.7 µM; in the assay on BT-549 breast it was 45.4 µM; with HS 578T breast it was 62.1 µM.
As for `O=c1cc2cc(O)[nH]c(=O)c2c(O)[nH]1`, the TGI in the assay on LXFL 529 NSCLC, with RXF-631 renal and in the assay with SR leukemia was more than 100 µM throughout.
On to `CC(C)(C)c1cc(C2NC(=O)NC2=O)cc(C(C)(C)C)c1O` (centres undefined), for which the TGI was more than 100 µM in the assay on ACHN renal; more than 100 µM in the assay on DU-145 prostate; more than 100 µM in the assay on BT-549 breast; more than 100 µM with MDA-N; 69.8 µM in the assay on HS 578T breast; more than 100 µM in the assay on SR leukemia.
In the case of `CC(=O)OC1C(O)C(C)OC(OC(=O)C2CCC3C(C2)OC2(CC(OC(=O)/C=C/c4ccccc4)C(C)CO2)C32CO2)C1OC1OC(C)C(O)C(O)C1O` (centres undefined), the results for the TGI in the assay on P388/ADR leukemia, in the assay on SN12K1 renal and with P388 leukemia were 113 µM, 0.0828 µM and 1.39 µM, respectively.

The record behind these values is PubChem BioAssay (NCI).
